Laboratory results taken from US8058309B2, “Protein kinase modulators and therapeutic uses thereof” (Novotyr Therapeutics Ltd., priority 2006, dated 2011).

Assay: Body weight of treated nude mice
Format: in vivo
Conditions: IP, 1/day, 50 mg/kg, over 4 weeks
Procedure: Human hormone-refractory prostate cancer PC3 cells (ATCC, 1.5×10^6 cells per mouse) were injected subcutaneously into the right leg of Nude:Hsd mice (purchased from Harlan). Ten days later, when palpable tumors had developed, mice were divided into 3 groups with similar average tumor size. […] The mice treated with compound 7 group were daily injected with compound 7 dissolved in the below described vehicle, and the vehicle-treated group (veh) was daily injected by the vehicle alone. Vehicle included 4.4% DMSO, 1.2% Ethanol and 50% PEG400 in DDW; Groups were composed of 3 mice per group. Dose administered IP was 50 mg/Kg (4 ml/Kg) once a day for one month. The length (l) and the width (w) of the tumors were measured every day and the volumes of the tumors were calculated as follows: v=1w^2/2. Graphs present average volumes of the tumors versus time in days. The procedure was followed for the other described in-vivo studies with the following modifications: […]

## N#C/C(=C\c1cc(O)c(O)c(Br)c1)C(=S)NCc1cc(O)c(O)c(O)c1 [Compound 7]
  Effect on body weight of the mice: no significant effect
